Patent publication US10052330B2, “Substituted pyrido[3,4-b]pyrazines as Syk inhibitors” (HUTCHISON MEDIPHARMA LIMITED, priority 2011, dated 2018)

Experiments:
Syk kinase = Syk kinase (Homo sapiens, UniProt P43405); assay: Syk kinase enzymatic assay (Kit-Tyr 2 Peptide); type: biochemical; conditions: 8 concentrations, 1 μM down to 0.0003 μM; upper bound of each range is 'less than'; read-out: IC50: Enzymatic Activity (Syk kinase)
RBL-2H3 cells = assay: IgE-induced Beta-hexosaminidase secretion in RBL-2H3 cells; type: cell-based; conditions: Rattus norvegicus, RBL-2H3, RBL-2H3 cells sensitized with SPE-7, stimulated with DNP-BSA; upper bound of each range is 'less than'; read-out: IC50, IgE-induced Beta-hexosaminidase secretion

## Cn1ccc2cc(-c3cc4nccnc4c(NC[C@@H]4CNCCO4)n3)cnc21 [Compound 234]
Syk kinase
  IC50: 100 to 1000 nM
RBL-2H3 cells
  IC50: 100 to 1000 nM

## Cn1ccc2cc(-c3cc4nccnc4c(NC[C@@H]4CNCCO4)n3)ccc21 [Compound 235]
Syk kinase
  IC50: 1 to 100 nM
RBL-2H3 cells
  IC50: 1 to 100 nM

## CN1CCN(c2ccc(-c3cc4nccnc4c(NC[C@H]4CCCNC4)n3)cc2F)CC1 [Compound 237]
Syk kinase
  IC50: 1 to 100 nM
RBL-2H3 cells
  IC50: 1 to 100 nM

## CCN1CCN(c2ccc(-c3cc4nccnc4c(NC[C@H]4CCCNC4)n3)cc2F)CC1 [Compound 238]
Syk kinase
  IC50: 1 to 100 nM
RBL-2H3 cells
  IC50: 100 to 1000 nM

## Fc1cc(-c2cc3nccnc3c(NCC3CNCCS3)n2)ccc1N1CCOCC1 (stereo not shown) [Compound 240]
Syk kinase
  IC50: 1 to 100 nM
RBL-2H3 cells
  IC50: 1 to 100 nM

## CN1CCN(c2ccc(-c3cc4nccnc4c(NCC4CNCCS4)n3)cc2)CC1 (stereo not shown) [Compound 241]
Syk kinase
  IC50: 1 to 100 nM
RBL-2H3 cells
  IC50: 100 to 1000 nM

## C[C@@H]1CN(c2ccc(-c3cc4nccnc4c(NC[C@@H]4CNCCO4)n3)cc2F)C[C@H](C)O1 [Compound 247]
Syk kinase
  IC50: 100 to 1000 nM
RBL-2H3 cells
  IC50: 1 to 100 nM

## FC1(CNc2nc(-c3ccc(N4CCOCC4)cc3)cc3nccnc23)CCCNC1 (stereo not shown) [Compound 251]
Syk kinase
  IC50: 1 to 100 nM
RBL-2H3 cells
  IC50: 1 to 100 nM

## CN1CCN(c2ccc(-c3cc4nccnc4c(NCC4(F)CCCNC4)n3)cc2)CC1 (stereo not shown) [Compound 253]
Syk kinase
  IC50: 1 to 100 nM
RBL-2H3 cells
  IC50: 100 to 1000 nM

## Fc1cc(-c2cc3nccnc3c(NCC3(F)CCCNC3)n2)ccc1N1CCOCC1 (stereo not shown) [Compound 254]
Syk kinase
  IC50: 1 to 100 nM
RBL-2H3 cells
  IC50: 1 to 100 nM

## COc1ccc(-c2cc3nccnc3c(NCC3(F)CCCNC3)n2)cc1F (stereo not shown) [Compound 255]
Syk kinase
  IC50: 100 to 1000 nM
RBL-2H3 cells
  IC50: 1 to 100 nM

## CN1CCN(c2ccc(-c3cc4nccnc4c(NC[C@@H]4CNCCO4)n3)cn2)CC1 [Compound 259]
Syk kinase
  IC50: 100 to 1000 nM
RBL-2H3 cells
  IC50: 100 to 1000 nM

## CN1CCCN(c2ccc(-c3cc4nccnc4c(NC[C@@H]4CNCCO4)n3)cn2)CC1 [Compound 260]
Syk kinase
  IC50: 100 to 1000 nM
RBL-2H3 cells
  IC50: 100 to 1000 nM

## c1cnc2c(NC[C@@H]3CNCCO3)nc(-c3cnn(C4CCOCC4)c3)cc2n1 [Compound 261]
Syk kinase
  IC50: 100 to 1000 nM
RBL-2H3 cells
  IC50: 100 to 1000 nM

## CN(c1ccc(-c2cc3nccnc3c(NC[C@@H]3CNCCO3)n2)cn1)C1CCOCC1 [Compound 264]
Syk kinase
  IC50: 1 to 100 nM
RBL-2H3 cells
  IC50: 1 to 100 nM

## O=C(C1CC1)N1CCN(c2ccc(-c3cc4nccnc4c(NC[C@@H]4CNCCO4)n3)cc2)CC1 [Compound 266]
Syk kinase
  IC50: 1 to 100 nM
RBL-2H3 cells
  IC50: 1 to 100 nM

## CCC(=O)N1CCN(c2ccc(-c3cc4nccnc4c(NC[C@@H]4CNCCO4)n3)cc2)CC1 [Compound 267]
Syk kinase
  IC50: 1 to 100 nM
RBL-2H3 cells
  IC50: 1 to 100 nM

## c1cnc2c(NC[C@@H]3CNCCO3)nc(-c3ccc(N4CCCOCC4)nc3)cc2n1 [Compound 269]
Syk kinase
  IC50: 1 to 100 nM
RBL-2H3 cells
  IC50: 1 to 100 nM

## CN(C)C(=O)C1CCN(c2ccc(-c3cc4nccnc4c(NC[C@@H]4CNCCO4)n3)cc2)CC1 [Compound 270]
Syk kinase
  IC50: 1 to 100 nM
RBL-2H3 cells
  IC50: 100 to 1000 nM

## O=C(CO)N1CCN(c2ccc(-c3cc4nccnc4c(NC[C@@H]4CNCCO4)n3)cc2)CC1 [Compound 272]
Syk kinase
  IC50: 1 to 100 nM
RBL-2H3 cells
  IC50: 1 to 100 nM

## CC(C)(O)C1CCN(c2ccc(-c3cc4nccnc4c(NC[C@@H]4CNCCO4)n3)cc2)CC1 [Compound 275]
Syk kinase
  IC50: 1 to 100 nM
RBL-2H3 cells
  IC50: 1 to 100 nM

## CC(Nc1nc(-c2ccc(N3CCOCC3)cc2)cc2nccnc12)C1CNCCO1 (stereo not shown) [Compound 276]
Syk kinase
  IC50: 1 to 100 nM
RBL-2H3 cells
  IC50: 1 to 100 nM

## CC(Nc1nc(-c2ccc(N3CCOCC3)c(F)c2)cc2nccnc12)C1CNCCO1 (stereo not shown) [Compound 278]
Syk kinase
  IC50: 1 to 100 nM
RBL-2H3 cells
  IC50: 1 to 100 nM

## COCC(=O)N1CCN(c2ccc(-c3cc4nccnc4c(NC[C@@H]4CNCCO4)n3)cc2)CC1 [Compound 279]
Syk kinase
  IC50: 1 to 100 nM
RBL-2H3 cells
  IC50: 1 to 100 nM

## CS(=O)(=O)CC(=O)N1CCN(c2ccc(-c3cc4nccnc4c(NC[C@@H]4CNCCO4)n3)cc2)CC1 [Compound 280]
Syk kinase
  IC50: 1 to 100 nM
RBL-2H3 cells
  IC50: 100 to 1000 nM

## CN(c1ccc(-c2cc3nccnc3c(NC[C@@H]3CNCCO3)n2)cc1)C1CCOCC1 [Compound 285]
Syk kinase
  IC50: 1 to 100 nM
RBL-2H3 cells
  IC50: 1 to 100 nM

## OCCOC1CCN(c2ccc(-c3cc4nccnc4c(NC[C@@H]4CNCCO4)n3)cc2)CC1 [Compound 286]
Syk kinase
  IC50: 1 to 100 nM
RBL-2H3 cells
  IC50: 1 to 100 nM

## CCS(=O)(=O)N1CCN(c2ccc(-c3cc4nccnc4c(NC[C@@H]4CNCCO4)n3)cc2F)CC1 [Compound 287]
Syk kinase
  IC50: 1 to 100 nM
RBL-2H3 cells
  IC50: 1 to 100 nM

## FC1(CNc2nc(-c3cnn(C4CCCC4)c3)cc3nccnc23)CCCNC1 (stereo not shown) [Compound 289]
Syk kinase
  IC50: 1 to 100 nM
RBL-2H3 cells
  IC50: 1 to 100 nM

## FC1(CNc2nc(-c3cnn(C4CCOCC4)c3)cc3nccnc23)CCCNC1 (stereo not shown) [Compound 290]
Syk kinase
  IC50: 1 to 100 nM
RBL-2H3 cells
  IC50: 1 to 100 nM

## CNc1ccc(-c2cc3nccnc3c(NCC3CNCCC3(F)F)n2)cc1 (stereo not shown) [Compound 291]
Syk kinase
  IC50: 1 to 100 nM
RBL-2H3 cells
  IC50: 1 to 100 nM

## FC1(F)CCNCC1CNc1nc(-c2ccc(N3CCOCC3)nc2)cc2nccnc12 (stereo not shown) [Compound 292]
Syk kinase
  IC50: 1 to 100 nM
RBL-2H3 cells
  IC50: 1 to 100 nM
